This note sets out measurements from patent publication US9309248B2, “Azaindolines” (Hoffmann-La Roche Inc., priority 2012, dated 2016).

One test has as its target T1, BIR2 domain of XIAP (Homo sapiens, UniProt P98170, C202A/C213G).
T1 construct: 6× Histidine-tagged BIR2 domain, corresponding to amino acids 124-240 of XIAP
Briefly: TR-FRET assay for BIR2 (inhibition of binding of XIAP BIR2 domain to SMAC-derived Peptide A). As to conditions: 6x Histidine-tagged BIR2 domain (amino acids 124-240 of XIAP) 10 nM, Peptide A 20 nM. A digest of the protocol:
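Inhibition of binding of the XIAP BIR2 domain (C202A/C213G) to biotinylated SMAC-derived Peptide A was measured. TR-FRET signal was read after 1 h at room temperature.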

For the next test, the target named is T2, BIR3 domain of XIAP (Homo sapiens, UniProt P98170).
T2 construct: BIR3 domain, corresponding to amino acids 241-356 of XIAP
T2 sequence (P98170 with tags, fused parts or gaps): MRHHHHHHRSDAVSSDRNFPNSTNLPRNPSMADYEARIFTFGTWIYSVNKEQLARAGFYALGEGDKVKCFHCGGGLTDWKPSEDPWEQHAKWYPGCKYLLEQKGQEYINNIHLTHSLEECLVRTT
Briefly: TR-FRET assay for BIR3 (inhibition of binding of XIAP BIR3 domain to SMAC-derived Peptide A). As to conditions: 6x Histidine-tagged BIR3 domain (amino acids 241-356 of XIAP) 10 nM, Peptide A 20 nM. Put shortly:
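His6-tagged XIAP BIR3 (aa 241-356, 10 nM) was mixed with 20 nM biotinylated SMAC-derived peptide in 50 mM Tris-Cl pH 7.5, 100 mM NaCl, 1 mM DTT, 0.1 mg/mL BSA and incubated 45 min at 37 °C. Eu-streptavidin (1.5 nM) and APC anti-His (15 nM) were added, with TR-FRET read 1 h later at RT. IC50 came from % inhibition over 10 serial concentrations.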

T1 sequence (P98170 with tags, fused parts or gaps C202A/C213G): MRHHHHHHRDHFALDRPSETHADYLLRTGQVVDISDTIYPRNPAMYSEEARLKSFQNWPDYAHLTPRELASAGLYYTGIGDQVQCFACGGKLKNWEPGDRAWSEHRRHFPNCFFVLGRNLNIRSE

In general, IC50 refers to the midpoint of a concentration-inhibition curve. High values mean weaker potency, low ones greater potency. For `CC[C@H](NCCO)C(=O)N[C@H](C(=O)N1c2ncccc2C[C@H]1C(=O)Nc1ccccc1)C(C)C` [Example 90, (S)-1-{(S)-2-[(S)-2-(2-Hydroxy-ethylamino)-butyrylamino]-3-methyl-butyryl}-2,3-dihydro-1H-pyrrolo[2,3-b]pyridine-2-carboxylic acid phenylamide], the IC50 at BIR2 domain of XIAP is 1.61 µM; at BIR3 domain of XIAP, > 54.8 µM.

On to `CN[C@@H](C)C(=O)N[C@H](C(=O)N1c2ncccc2C[C@H]1C(=O)Nc1ccccc1C)C(C)C` [Example 14, (S)-1-[(S)-3-Methyl-2-((S)-2-methylamino-propionylamino)-butyryl]-2,3-dihydro-1H-pyrrolo[2,3-b]pyridine-2-carboxylic acid o-tolylamide], for which the results for the IC50 on BIR2 domain of XIAP and on BIR3 domain of XIAP were 0.0335 µM and > 54.8 µM, respectively.

`CN[C@@H](C)C(=O)N[C@H](C(=O)N1c2ncccc2C[C@H]1C(=O)Nc1ccc(C(=O)c2ccccc2)cc1)C(C)C` [Example 42, (S)-1-[(S)-3-Methyl-2-((S)-2-methylamino-propionylamino)-butyryl]-2,3-dihydro-1H-pyrrolo[2,3-b]pyridine-2-carboxylic acid (4-benzoyl-phenyl)-amide]: the IC50 is 0.847 µM at BIR2 domain of XIAP and > 54.8 µM on BIR3 domain of XIAP.

Turning to `CCNC(=O)C1Cc2cccnc2N1C(=O)[C@@H](NC(=O)[C@H](C)NC)C1CCCCC1` (stereo partly drawn) [Example 4, (R,S)-1-[(S)-2-Cyclohexyl-2-((S)-2-methylamino-propionylamino)-acetyl]-2,3-dihydro-1H-pyrrolo[2,3-b]pyridine-2-carboxylic acid ethylamide], the IC50 is 2.12 µM on BIR2 domain of XIAP and > 54.8 µM at BIR3 domain of XIAP.

For `CN[C@@H](C)C(=O)N[C@H](C(=O)N1c2ncccc2C[C@H]1C(=O)Nc1ccncc1F)C(C)C` [Example 69, (S)-1-[(S)-3-Methyl-2-((S)-2-methylamino-propionylamino)-butyryl]-2,3-dihydro-1H-pyrrolo[2,3-b]pyridine-2-carboxylic acid (3-fluoro-pyridin-4-yl)-amide], the IC50 is 0.105 µM on BIR2 domain of XIAP and > 54.8 µM on BIR3 domain of XIAP.

On to `CN[C@@H](C)C(=O)N[C@H](C(=O)N1c2ncccc2C[C@H]1c1nc2ccccc2[nH]1)C(C)C` [Example 34, (S)—N—{(S)-1-[(S)-2-(1H-Benzoimidazol-2-yl)-2,3-dihydro-pyrrolo[2,3-b]pyridine-1-carbonyl]-2-methyl-propyl}-2-methylamino-propionamide], for which the IC50 at BIR2 domain of XIAP is 0.137 µM; on BIR3 domain of XIAP, > 54.8 µM.

On to `CN[C@@H](C)C(=O)N[C@H](C(=O)N1c2ncccc2C[C@H]1C(=O)Nc1ccc(F)cc1F)C(C)C` [Example 65, (S)-1-[(S)-3-Methyl-2-((S)-2-methylamino-propionylamino)-butyryl]-2,3-dihydro-1H-pyrrolo[2,3-b]pyridine-2-carboxylic acid (2,4-difluoro-phenyl)-amide], for which the IC50 on BIR2 domain of XIAP is 0.0351 µM; at BIR3 domain of XIAP it was > 54.8 µM.

As for `CN[C@@H](C)C(=O)N[C@H](C(=O)N1c2ncccc2C[C@H]1C(=O)Nc1c(C)cccc1C)C(C)C` [Example 33, (S)-1-[(S)-3-Methyl-2-((S)-2-methylamino-propionylamino)-butyryl]-2,3-dihydro-1H-pyrrolo[2,3-b]pyridine-2-carboxylic acid (2,6-dimethyl-phenyl)-amide], the IC50 at BIR2 domain of XIAP was 0.0449 µM; on BIR3 domain of XIAP, > 54.8 µM.

In the case of `CN[C@@H](C)C(=O)N[C@H](C(=O)N1c2ncccc2C[C@@H]1c1nc2ccccc2[nH]1)C(C)C` [Example 35, (S)—N—{(S)-1-[(R)-2-(1H-Benzoimidazol-2-yl)-2,3-dihydro-pyrrolo[2,3-b]pyridine-1-carbonyl]-2-methyl-propyl}-2-methylamino-propionamide], the IC50 on BIR2 domain of XIAP is 37.7 µM; on BIR3 domain of XIAP it was > 54.8 µM.

In the case of `CCN[C@@H](C)C(=O)N[C@H](C(=O)N1c2ncccc2C[C@H]1C(=O)Nc1ccccc1)C(C)C` [Example 87, (S)-1-[(S)-2-((S)-2-Ethylamino-propionylamino)-3-methyl-butyryl]-2,3-dihydro-1H-pyrrolo[2,3-b]pyridine-2-carboxylic acid phenylamide], the IC50 at BIR2 domain of XIAP was 0.234 µM; at BIR3 domain of XIAP, > 54.8 µM.

With `[2H]C([2H])([2H])N[C@@H](CC)C(=O)N[C@H](C(=O)N1c2ncccc2C[C@H]1C(=O)Nc1ccccc1)C1CCCCC1` [Example 83, 1-[(S)-2-Cyclohexyl-2-((S)-2-(d3-methyl)amino-butyrylamino)-acetyl]-2,3-dihydro-1H-pyrrolo[2,3-b]pyridine-2-carboxylic acid phenylamide], the IC50 on BIR2 domain of XIAP is 0.0528 µM; on BIR3 domain of XIAP, > 54.8 µM.

As for `CN[C@@H](C)C(=O)N[C@H](C(=O)N1c2ncccc2C[C@H]1C(=O)Nc1ccc(C(=O)N(C)C)cc1F)C(C)C` [Example 62, (S)-1-[(S)-3-Methyl-2-((S)-2-methylamino-propionylamino)-butyryl]-2,3-dihydro-1H-pyrrolo[2,3-b]pyridine-2-carboxylic acid (4-dimethylcarbamoyl-2-fluoro-phenyl)-amide], the IC50 at BIR2 domain of XIAP is 0.0351 µM; on BIR3 domain of XIAP it was > 54.8 µM.

Turning to `CN[C@@H](C)C(=O)N[C@H](C(=O)N1c2ncccc2C[C@H]1C(=O)NCCS(C)(=O)=O)C(C)C` [Example 51, (S)-1-[(S)-3-Methyl-2-((S)-2-methylamino-propionylamino)-butyryl]-2,3-dihydro-1H-pyrrolo[2,3-b]pyridine-2-carboxylic acid (2-methanesulfonyl-ethyl)-amide], the values for the IC50 on BIR2 domain of XIAP and at BIR3 domain of XIAP were 0.828 µM and > 54.8 µM, respectively.

On to `CN[C@@H](C)C(=O)N[C@H](C(=O)N1c2ncccc2C[C@H]1C(=O)Nc1ccccc1C#N)C(C)C` [Example 48, (S)-1-[(S)-3-Methyl-2-((S)-2-methylamino-propionylamino)-butyryl]-2,3-dihydro-1H-pyrrolo[2,3-b]pyridine-2-carboxylic acid (2-cyano-phenyl)-amide], for which the figures for the IC50 on BIR2 domain of XIAP and at BIR3 domain of XIAP were 0.0549 µM and > 54.8 µM, respectively.
